Results taken from ChEMBL document CHEMBL1212941, “Eucapsitrione, an anti-Mycobacterium tuberculosis anthraquinone derivative from the cultured freshwater cyanobacterium Eucapsis sp” (J Nat Prod, 2010).
pIC50: −log10 of the molar value. Converted amounts (≈) assume the structure as drawn. The source made the active and inactive calls. No cut-off for these calls is given here.

Experiments:
[1] = test system: Mycobacterium tuberculosis; experiment: Antimycobacterial activity against Mycobacterium tuberculosis H37Rv by low oxygen recovery assay; type: functional
[2] = test system: Staphylococcus aureus; experiment: Antibacterial activity against Staphylococcus aureus at 55 uM by broth microdilution method; type: functional, organism-based
[3] = test system: Mycolicibacterium smegmatis; experiment: Antimycobacterial activity against Mycobacterium smegmatis at 55 uM by broth microdilution method; type: functional, organism-based
[4] = test system: Vero; experiment: Cytotoxicity against african green monkey Vero cells; type: cell-based; conditions: Chlorocebus sabaeus
[5] = test system: Mycobacterium tuberculosis; experiment: Antimycobacterial activity against Mycobacterium tuberculosis H37Rv by microplate alamar blue assay; type: functional
[6] = test system: Escherichia coli; experiment: Antibacterial activity against Escherichia coli at 55 uM by broth microdilution method; type: functional, organism-based
[7] = test system: Candida albicans; experiment: Antifungal activity against Candida albicans at 55 uM by broth microdilution method; type: functional, organism-based

Structure (SMILES): O=c1c2cccc(O)c2c(=O)c2c(O)c3c(cc12)c(=O)c1c(O)cccc13 [EUCAPSITRIONE]
- MIC [1]: 6.4 µM (≈ 2.29 µg/mL)
- Activity [2]: inactive
- Activity [3]: inactive
- pIC50 [4]: < 4.55
- MIC [5]: 3.1 µM (≈ 1.11 µg/mL)
- Activity [6]: inactive
- Activity [7]: inactive
